Assay results published in ChEMBL document CHEMBL3044736, “Synthesis, characterization, solvatochromic properties, and antimicrobial evaluation of 5-acetyl-2-thioxo-dihydro-pyrimidine-4,6-dione-based chalcones” (2013).
≈ marks a conversion by molar mass, not a printed value.

Columns and labels:
Type in all cases: functional
Candida albicans [1] = test: Antimicrobial activity against Candida albicans MTCC 227 assessed as diameter of growth inhibition zone at 100 ug/ml after 48-96 hr by agar cup diffusion method; conditions: read-out: DIZ
Streptococcus pyogenes [2] = test: Antimicrobial activity against Streptococcus pyogenes MTCC 442 by agar cup diffusion method
Escherichia coli [3] = test: Antimicrobial activity against Escherichia coli MTCC 443 assessed as diameter of growth inhibition zone at 25 ug/ml after 18-24 hr by agar cup diffusion method; conditions: read-out: DIZ
Escherichia coli [4] = test: Antimicrobial activity against Escherichia coli MTCC 443 by agar cup diffusion method
Klebsiella pneumoniae [5] = test: Antimicrobial activity against Klebsiella pneumoniae MTCC 109 assessed as diameter of growth inhibition zone at 25 ug/ml after 18-24 hr by agar cup diffusion method; conditions: read-out: DIZ
Aspergillus clavatus [6] = test: Antimicrobial activity against Aspergillus clavatus MTCC 1323 by agar cup diffusion method
Streptococcus pyogenes [7] = test: Antimicrobial activity against Streptococcus pyogenes MTCC 442 assessed as diameter of growth inhibition zone at 25 ug/ml after 18-24 hr by agar cup diffusion method; conditions: read-out: DIZ
Aspergillus clavatus [8] = test: Antimicrobial activity against Aspergillus clavatus MTCC 1323 assessed as diameter of growth inhibition zone at 250 ug/ml after 48-96 hr by agar cup diffusion method; conditions: read-out: DIZ
Candida albicans [9] = test: Antimicrobial activity against Candida albicans MTCC 227 assessed as diameter of growth inhibition zone at 50 ug/ml after 48-96 hr by agar cup diffusion method; conditions: read-out: DIZ
Escherichia coli [10] = test: Antimicrobial activity against Escherichia coli MTCC 443 assessed as diameter of growth inhibition zone at 250 ug/ml after 18-24 hr by agar cup diffusion method; conditions: read-out: DIZ
Pseudomonas aeruginosa [11] = test: Antimicrobial activity against Pseudomonas aeruginosa MTCC 1688 assessed as diameter of growth inhibition zone at 100 ug/ml after 18-24 hr by agar cup diffusion method; conditions: read-out: DIZ
Klebsiella pneumoniae [12] = test: Antimicrobial activity against Klebsiella pneumoniae MTCC 109 by agar cup diffusion method
Candida albicans [13] = test: Antimicrobial activity against Candida albicans MTCC 227 by agar cup diffusion method
Staphylococcus aureus [14] = test: Antimicrobial activity against Staphylococcus aureus MTCC 96 assessed as diameter of growth inhibition zone at 25 ug/ml after 18-24 hr by agar cup diffusion method; conditions: read-out: DIZ
Candida albicans [15] = test: Antimicrobial activity against Candida albicans MTCC 227 assessed as diameter of growth inhibition zone at 25 ug/ml after 48-96 hr by agar cup diffusion method; conditions: read-out: DIZ
Pseudomonas aeruginosa [16] = test: Antimicrobial activity against Pseudomonas aeruginosa MTCC 1688 assessed as diameter of growth inhibition zone at 25 ug/ml after 18-24 hr by agar cup diffusion method; conditions: read-out: DIZ
Penicillium [17] = test: Antimicrobial activity against Penicillium wild strain assessed as diameter of growth inhibition zone at 100 ug/ml after 48-96 hr by agar cup diffusion method; conditions: read-out: DIZ
Streptococcus pyogenes [18] = test: Antimicrobial activity against Streptococcus pyogenes MTCC 442 assessed as diameter of growth inhibition zone at 100 ug/ml after 18-24 hr by agar cup diffusion method; conditions: read-out: DIZ
Staphylococcus aureus [19] = test: Antimicrobial activity against Staphylococcus aureus MTCC 96 by agar cup diffusion method
Pseudomonas aeruginosa [20] = test: Antimicrobial activity against Pseudomonas aeruginosa MTCC 1688 by agar cup diffusion method
Trichophyton rubrum [21] = test: Antimicrobial activity against Trichophyton rubrum MTCC 296 by agar cup diffusion method
Escherichia coli [22] = test: Antimicrobial activity against Escherichia coli MTCC 443 assessed as diameter of growth inhibition zone at 100 ug/ml after 18-24 hr by agar cup diffusion method; conditions: read-out: DIZ
Penicillium [23] = test: Antimicrobial activity against Penicillium wild strain assessed as diameter of growth inhibition zone at 250 ug/ml after 48-96 hr by agar cup diffusion method; conditions: read-out: DIZ
Staphylococcus aureus [24] = test: Antimicrobial activity against Staphylococcus aureus MTCC 96 assessed as diameter of growth inhibition zone at 50 ug/ml after 18-24 hr by agar cup diffusion method; conditions: read-out: DIZ
Streptococcus pyogenes [25] = test: Antimicrobial activity against Streptococcus pyogenes MTCC 442 assessed as diameter of growth inhibition zone at 50 ug/ml after 18-24 hr by agar cup diffusion method; conditions: read-out: DIZ
Trichophyton rubrum [26] = test: Antimicrobial activity against Trichophyton rubrum MTCC 296 assessed as diameter of growth inhibition zone at 25 ug/ml after 48-96 hr by agar cup diffusion method; conditions: read-out: DIZ
Pseudomonas aeruginosa [27] = test: Antimicrobial activity against Pseudomonas aeruginosa MTCC 1688 assessed as diameter of growth inhibition zone at 50 ug/ml after 18-24 hr by agar cup diffusion method; conditions: read-out: DIZ
Aspergillus clavatus [28] = test: Antimicrobial activity against Aspergillus clavatus MTCC 1323 assessed as diameter of growth inhibition zone at 100 ug/ml after 48-96 hr by agar cup diffusion method; conditions: read-out: DIZ
Staphylococcus aureus [29] = test: Antimicrobial activity against Staphylococcus aureus MTCC 96 assessed as diameter of growth inhibition zone at 100 ug/ml after 18-24 hr by agar cup diffusion method; conditions: read-out: DIZ
Trichophyton rubrum [30] = test: Antimicrobial activity against Trichophyton rubrum MTCC 296 assessed as diameter of growth inhibition zone at 50 ug/ml after 48-96 hr by agar cup diffusion method; conditions: read-out: DIZ
Trichophyton rubrum [31] = test: Antimicrobial activity against Trichophyton rubrum MTCC 296 assessed as diameter of growth inhibition zone at 250 ug/ml after 48-96 hr by agar cup diffusion method; conditions: read-out: DIZ
Aspergillus clavatus [32] = test: Antimicrobial activity against Aspergillus clavatus MTCC 1323 assessed as diameter of growth inhibition zone at 25 ug/ml after 48-96 hr by agar cup diffusion method; conditions: read-out: DIZ
Klebsiella pneumoniae [33] = test: Antimicrobial activity against Klebsiella pneumoniae MTCC 109 assessed as diameter of growth inhibition zone at 100 ug/ml after 18-24 hr by agar cup diffusion method; conditions: read-out: DIZ
Streptococcus pyogenes [34] = test: Antimicrobial activity against Streptococcus pyogenes MTCC 442 assessed as diameter of growth inhibition zone at 250 ug/ml after 18-24 hr by agar cup diffusion method; conditions: read-out: DIZ
Penicillium [35] = test: Antimicrobial activity against Penicillium wild strain assessed as diameter of growth inhibition zone at 50 ug/ml after 48-96 hr by agar cup diffusion method; conditions: read-out: DIZ
Aspergillus clavatus [36] = test: Antimicrobial activity against Aspergillus clavatus MTCC 1323 assessed as diameter of growth inhibition zone at 50 ug/ml after 48-96 hr by agar cup diffusion method; conditions: read-out: DIZ
Klebsiella pneumoniae [37] = test: Antimicrobial activity against Klebsiella pneumoniae MTCC 109 assessed as diameter of growth inhibition zone at 50 ug/ml after 18-24 hr by agar cup diffusion method; conditions: read-out: DIZ
Pseudomonas aeruginosa [38] = test: Antimicrobial activity against Pseudomonas aeruginosa MTCC 1688 assessed as diameter of growth inhibition zone at 250 ug/ml after 18-24 hr by agar cup diffusion method; conditions: read-out: DIZ
Staphylococcus aureus [39] = test: Antimicrobial activity against Staphylococcus aureus MTCC 96 assessed as diameter of growth inhibition zone at 250 ug/ml after 18-24 hr by agar cup diffusion method; conditions: read-out: DIZ
Candida albicans [40] = test: Antimicrobial activity against Candida albicans MTCC 227 assessed as diameter of growth inhibition zone at 250 ug/ml after 48-96 hr by agar cup diffusion method; conditions: read-out: DIZ
Penicillium [41] = test: Antimicrobial activity against Penicillium wild strain by agar cup diffusion method
Trichophyton rubrum [42] = test: Antimicrobial activity against Trichophyton rubrum MTCC 296 assessed as diameter of growth inhibition zone at 100 ug/ml after 48-96 hr by agar cup diffusion method; conditions: read-out: DIZ
Escherichia coli [43] = test: Antimicrobial activity against Escherichia coli MTCC 443 assessed as diameter of growth inhibition zone at 50 ug/ml after 18-24 hr by agar cup diffusion method; conditions: read-out: DIZ
Penicillium [44] = test: Antimicrobial activity against Penicillium wild strain assessed as diameter of growth inhibition zone at 25 ug/ml after 48-96 hr by agar cup diffusion method; conditions: read-out: DIZ
Klebsiella pneumoniae [45] = test: Antimicrobial activity against Klebsiella pneumoniae MTCC 109 assessed as diameter of growth inhibition zone at 250 ug/ml after 18-24 hr by agar cup diffusion method; conditions: read-out: DIZ

Compound: O=C(/C=C/c1ccccc1O)C1C(=O)NC(=S)NC1=O
- zone of inhibition at 100 µg/mL (Candida albicans [1]): 22 mm
- MBC (Streptococcus pyogenes [2]): 200 µg/mL (≈ 689 µM)
- MIC (Streptococcus pyogenes [2]): 125 µg/mL (≈ 431 µM)
- zone of inhibition at 25 µg/mL (Escherichia coli [3]): 13 mm
- MBC (Escherichia coli [4]): 200 µg/mL (≈ 689 µM)
- MIC (Escherichia coli [4]): 125 µg/mL (≈ 431 µM)
- zone of inhibition at 25 µg/mL (Klebsiella pneumoniae [5]): 12 mm
- MFC (Aspergillus clavatus [6]): > 1000 µg/mL
- MIC (Aspergillus clavatus [6]): > 1000 µg/mL
- zone of inhibition at 25 µg/mL (Streptococcus pyogenes [7]): 13 mm
- zone of inhibition at 250 µg/mL (Aspergillus clavatus [8]): 22 mm
- zone of inhibition at 50 µg/mL (Candida albicans [9]): 19 mm
- zone of inhibition at 250 µg/mL (Escherichia coli [10]): 17 mm
- zone of inhibition at 100 µg/mL (Pseudomonas aeruginosa [11]): 17 mm
- MBC (Klebsiella pneumoniae [12]): 250 µg/mL (≈ 861 µM)
- MIC (Klebsiella pneumoniae [12]): 200 µg/mL (≈ 689 µM)
- MFC (Candida albicans [13]): > 1000 µg/mL
- MIC (Candida albicans [13]): 1000 µg/mL (≈ 3440 µM)
- zone of inhibition at 25 µg/mL (Staphylococcus aureus [14]): 11 mm
- zone of inhibition at 25 µg/mL (Candida albicans [15]): 17 mm
- zone of inhibition at 25 µg/mL (Pseudomonas aeruginosa [16]): 11 mm
- zone of inhibition at 100 µg/mL (Penicillium [17]): 22 mm
- zone of inhibition at 100 µg/mL (Streptococcus pyogenes [18]): 16 mm
- MBC (Staphylococcus aureus [19]): 500 µg/mL (≈ 1720 µM)
- MIC (Staphylococcus aureus [19]): 500 µg/mL (≈ 1720 µM)
- MBC (Pseudomonas aeruginosa [20]): 250 µg/mL (≈ 861 µM)
- MIC (Pseudomonas aeruginosa [20]): 250 µg/mL (≈ 861 µM)
- MFC (Trichophyton rubrum [21]): > 1000 µg/mL
- MIC (Trichophyton rubrum [21]): > 1000 µg/mL
- zone of inhibition at 100 µg/mL (Escherichia coli [22]): 16 mm
- zone of inhibition at 250 µg/mL (Penicillium [23]): 23 mm
- zone of inhibition at 50 µg/mL (Staphylococcus aureus [24]): 13 mm
- zone of inhibition at 50 µg/mL (Streptococcus pyogenes [25]): 15 mm
- zone of inhibition at 25 µg/mL (Trichophyton rubrum [26]): 18 mm
- zone of inhibition at 50 µg/mL (Pseudomonas aeruginosa [27]): 13 mm
- zone of inhibition at 100 µg/mL (Aspergillus clavatus [28]): 20 mm
- zone of inhibition at 100 µg/mL (Staphylococcus aureus [29]): 17 mm
- zone of inhibition at 50 µg/mL (Trichophyton rubrum [30]): 21 mm
- zone of inhibition at 250 µg/mL (Trichophyton rubrum [31]): 22 mm
- zone of inhibition at 25 µg/mL (Aspergillus clavatus [32]): 18 mm
- zone of inhibition at 100 µg/mL (Klebsiella pneumoniae [33]): 15 mm
- zone of inhibition at 250 µg/mL (Streptococcus pyogenes [34]): 17 mm
- zone of inhibition at 50 µg/mL (Penicillium [35]): 19 mm
- zone of inhibition at 50 µg/mL (Aspergillus clavatus [36]): 19 mm
- zone of inhibition at 50 µg/mL (Klebsiella pneumoniae [37]): 13 mm
- zone of inhibition at 250 µg/mL (Pseudomonas aeruginosa [38]): 19 mm
- zone of inhibition at 250 µg/mL (Staphylococcus aureus [39]): 19 mm
- zone of inhibition at 250 µg/mL (Candida albicans [40]): 24 mm
- MFC (Penicillium [41]): > 1000 µg/mL
- MIC (Penicillium [41]): > 1000 µg/mL
- zone of inhibition at 100 µg/mL (Trichophyton rubrum [42]): 21 mm
- zone of inhibition at 50 µg/mL (Escherichia coli [43]): 15 mm
- zone of inhibition at 25 µg/mL (Penicillium [44]): 18 mm
- zone of inhibition at 250 µg/mL (Klebsiella pneumoniae [45]): 17 mm
